This note sets out measurements from ChEMBL document CHEMBL1201862, “PubChem BioAssay data set” (2004).

Among the test systems are TK-10; OVCAR-3; CCRF-CEM; HCT-116; NCI-H460; NCI/ADR-RES; HCT-15; 786-0; U-251; T47D; OVCAR-4; SW-620; SK-OV-3; NCI-H226; HOP-62; SR; SF-268; SK-MEL-5; HOP-92.
Holding throughout (assay): DTP human tumour cell line panel, 48 h

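Each compound was tested at five concentrations against cells in 96-well plates for 48 hours. At the GI50, growth is halved.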 Active and inactive are the calls of the source. Cut-off read from the data, not from the text of the source: active = GI50 up to about 1.1 µM and inactive = higher.

A word on the GI50: it is the concentration at which growth is held to half of that of the control. In the case of `O=C1NC(c2cccc(OCc3ccccc3)c2)Nc2ccccc21` (configuration not stated), the GI50 with TK-10 was 0.603 µM (active); in the test on OVCAR-3, 0.1 µM (active); in the test on CCRF-CEM, 0.0479 µM (active); with HCT-116, 0.0465 µM (active); in the test with NCI-H460 it was 0.208 µM (active); in the test on NCI/ADR-RES, 0.117 µM (active). For the same compound, the GI50 was 0.0805 µM in the test on HCT-15; 0.286 µM (active) with 786-0; 0.232 µM (active) with U-251; 19.1 µM (inactive) in the test with T47D; 13.7 µM (inactive) with OVCAR-4; 0.0938 µM (active) in the test with SW-620. Also, the GI50 in the test on SK-OV-3 is 0.307 µM (active); with NCI-H226, 0.274 µM (active); in the test on HOP-62, 0.359 µM (active); with SR it was < 0.0298 µM (active); in the test with SF-268 it was 0.541 µM (active); in the test on SK-MEL-5, 0.0326 µM (active).

With `COC(=O)C1CCOC(C)N1C(=O)OC(C)(C)C` (configuration not stated), the GI50 with TK-10, in the test with OVCAR-3, with CCRF-CEM, with HCT-116, in the test with NCI-H460 and in the test with NCI/ADR-RES was > 100 µM (inactive) in each case. For the same compound, the GI50 in the test on HCT-15 was greater than 100 µM; in the test with 786-0, > 100 µM (inactive); in the test with U-251 it was > 100 µM (inactive); in the test on T47D it was > 100 µM (inactive); in the test on OVCAR-4, > 100 µM (inactive); in the test on SW-620, > 100 µM (inactive). Moreover, the GI50 in the test on SK-OV-3, with NCI-H226, in the test on HOP-62, in the test with SR, in the test with SF-268 and in the test on SK-MEL-5 was > 100 µM (inactive) in each case.

Turning to `C[N+]1(C)CCC(C#N)(c2ccccc2)CC1`, the GI50 in the test with TK-10 is > 100 µM (inactive); in the test on CCRF-CEM, 0.65 µM (active); in the test on HCT-116 it was > 100 µM (inactive); in the test with NCI-H460 it was > 100 µM (inactive); in the test with NCI/ADR-RES it was > 100 µM (inactive); with HCT-15 it was greater than 100 µM. The GI50 in the test on 786-0, with U-251, with T47D, with OVCAR-4, in the test with SW-620 and with HOP-92 was > 100 µM (inactive) throughout. The GI50 with SK-OV-3, with HOP-62, in the test on SR, with SF-268 and in the test on SK-MEL-5 was > 100 µM (inactive) throughout.

`CNc1ncccc1Nc1cc(=O)n2c3cccnc3n(C)c2c1`: the GI50 in the test with TK-10 was 53.2 µM (inactive); with OVCAR-3 it was > 100 µM (inactive); in the test on CCRF-CEM, > 100 µM (inactive); with HCT-116 it was > 100 µM (inactive); in the test with NCI-H460, > 100 µM (inactive); with NCI/ADR-RES it was > 100 µM (inactive). Moreover, the GI50 with HCT-15 is greater than 100 µM; with 786-0 it was > 100 µM (inactive); in the test on U-251 it was 21.8 µM (inactive); in the test on T47D, > 100 µM (inactive); with OVCAR-4 it was 38.9 µM (inactive); with SW-620, > 100 µM (inactive). The GI50 is > 100 µM (inactive) with SK-OV-3; > 100 µM (inactive) in the test on NCI-H226; 36.8 µM (inactive) in the test with HOP-62; > 100 µM (inactive) with SR; 51.8 µM (inactive) in the test with SF-268; > 100 µM (inactive) in the test on SK-MEL-5.

In the case of `BrCC[P+](c1ccccc1)(c1ccccc1)c1ccccc1`, the GI50 in the test with TK-10 is 16.9 µM (inactive); in the test with OVCAR-3, 2.59 µM (inactive); with CCRF-CEM it was 2.25 µM (inactive); in the test with HCT-116, 2.28 µM (inactive); in the test on NCI-H460, 19.5 µM (inactive); in the test with NCI/ADR-RES, 6.31 µM (inactive). Besides, the GI50 in the test with HCT-15 was 32.7 µM; in the test on 786-0, 2.75 µM (inactive); with U-251 it was 3.87 µM (inactive); in the test on T47D it was 1.27 µM (inactive); with OVCAR-4, 6.5 µM (inactive); in the test on SW-620 it was 2.51 µM (inactive). The GI50 was 3.57 µM (inactive) in the test with HOP-92; 24.5 µM (inactive) in the test with SK-OV-3; 6.68 µM (inactive) in the test with HOP-62; 4.93 µM (inactive) in the test on SR; 2.13 µM (inactive) in the test with SF-268; 8.11 µM (inactive) in the test on SK-MEL-5.

In the case of `CC(=O)Nc1nc(C)c(S(=O)(=O)NC(=O)NC2NC(=O)NC2=O)s1` (configuration not stated), the GI50 in the test with TK-10, with OVCAR-3, in the test on CCRF-CEM, in the test with HCT-116, in the test with NCI-H460 and with NCI/ADR-RES was > 100 µM (inactive) throughout. The GI50 with HCT-15 is greater than 100 µM; in the test with 786-0, > 100 µM (inactive); with U-251 it was > 100 µM (inactive); in the test on T47D, > 100 µM (inactive); in the test with OVCAR-4, > 100 µM (inactive); in the test with SW-620 it was > 100 µM (inactive). Further, the GI50 in the test on HOP-92, with SK-OV-3, in the test with HOP-62, in the test on SR, in the test on SF-268 and in the test with SK-MEL-5 was > 100 µM (inactive) in each case.

`O=CC12CCCN1CCC2`: the GI50 with TK-10, in the test with OVCAR-3, in the test on CCRF-CEM, with HCT-116, in the test on NCI-H460 and in the test with NCI/ADR-RES was > 100 µM (inactive) in each case. Besides, the GI50 in the test with HCT-15 was greater than 100 µM; in the test on 786-0, > 100 µM (inactive); in the test with U-251, > 100 µM (inactive); in the test with T47D, > 100 µM (inactive); with OVCAR-4, > 100 µM (inactive); in the test on SW-620, > 100 µM (inactive). The GI50 with SK-OV-3 was > 100 µM (inactive); in the test on NCI-H226, 76.4 µM (inactive); in the test with HOP-62 it was > 100 µM (inactive); in the test with SR, > 100 µM (inactive); with SK-MEL-5 it was > 100 µM (inactive).

For `C=CCOC(=O)C1C2OC3(C(C(=O)OC)=C2C(=O)OC)c2ccccc2CCC13` (configuration not stated), the GI50 in the test with TK-10, in the test on OVCAR-3, with CCRF-CEM, with HCT-116, with NCI-H460 and with NCI/ADR-RES was > 10 µM (inactive) each time. The GI50 with HCT-15 is greater than 10 µM; in the test with 786-0 it was > 10 µM (inactive); with U-251 it was > 10 µM (inactive); in the test on T47D, > 10 µM (inactive); in the test with OVCAR-4, > 10 µM (inactive); in the test on SW-620, > 10 µM (inactive). Also, the GI50 with SK-OV-3, in the test on NCI-H226, with HOP-62, with SR, in the test on SF-268 and in the test with SK-MEL-5 was > 10 µM (inactive) in each case.
